Literature values in US20210113561A1, “PHARMACEUTICAL COMPOSITION, METHODS FOR TREATING AND USES THEREOF” (Boehringer Ingelheim International GmbH, priority 2018, published 2021).

Key:
[1] = metformin on its own, in the diabetic
[2] = patients with type 2 diabetes mellitus at high risk for cardiovascular events
[3] = target: T1, SGLT2 (Homo sapiens, UniProt P31639)
T1 sequence (P31639 1-672): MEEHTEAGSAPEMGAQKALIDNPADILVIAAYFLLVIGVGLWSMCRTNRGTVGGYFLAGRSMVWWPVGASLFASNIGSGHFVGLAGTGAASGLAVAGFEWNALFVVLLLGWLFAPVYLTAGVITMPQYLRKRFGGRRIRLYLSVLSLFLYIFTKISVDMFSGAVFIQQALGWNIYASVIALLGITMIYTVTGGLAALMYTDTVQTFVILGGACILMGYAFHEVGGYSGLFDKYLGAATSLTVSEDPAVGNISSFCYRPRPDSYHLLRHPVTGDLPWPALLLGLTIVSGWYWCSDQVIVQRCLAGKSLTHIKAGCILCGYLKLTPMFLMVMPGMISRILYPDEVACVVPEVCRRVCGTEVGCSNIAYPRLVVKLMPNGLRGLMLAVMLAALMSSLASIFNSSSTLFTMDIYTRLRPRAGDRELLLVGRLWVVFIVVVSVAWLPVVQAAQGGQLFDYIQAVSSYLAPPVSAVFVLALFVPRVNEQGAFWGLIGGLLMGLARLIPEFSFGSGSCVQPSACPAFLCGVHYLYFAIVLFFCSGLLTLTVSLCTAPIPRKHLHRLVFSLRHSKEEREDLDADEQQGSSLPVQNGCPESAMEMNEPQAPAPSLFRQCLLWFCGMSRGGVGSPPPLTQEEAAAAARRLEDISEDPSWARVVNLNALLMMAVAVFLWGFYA

SMILES	average improvement in the HbA1c value [1]	rates of death from any cause [2]	rates of the primary composite cardiovascular outcome [2]	selectivity SGLT2 versus SGLT1 [3]
CN(C)C(=N)N=C(N)N [metformin]	1.0-1.5%	–	–	–
OC[C@H]1O[C@@H](c2ccc(Cl)c(Cc3ccc(O[C@H]4CCOC4)cc3)c2)[C@H](O)[C@@H](O)[C@@H]1O [empagliflozin]	–	significantly lower rates	significantly lower rates	high selectivity
